Assay results published in PubChem BioAssay (NCI).
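Method: 48-hour compound exposure of cells in 96-well plates, five concentrations, linear interpolation of endpoints. Abbreviation: GI50, concentration required for 50% inhibition of growth. TGI is the concentration that stops growth completely.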

Legend:
Experiment in all cases: inhibition of tumour cell growth, NCI panel, 48 h; in the data active = GI50 below about 0.43 µM; inactive = the rest
[1] = test system: 786-0 renal
[2] = test system: A498 renal
[3] = test system: A549 NSCLC
[4] = test system: ACHN renal
[5] = test system: BT-549 breast
[6] = test system: CAKI-1 renal
[7] = test system: CCRF-CEM leukemia
[8] = test system: COLO 205 colon
[9] = test system: DU-145 prostate
[10] = test system: EKVX NSCLC
[11] = test system: HCC-2998 colon
[12] = test system: HCT-116 colon
[13] = test system: HCT-15 colon
[14] = test system: HL-60(TB) leukemia
[15] = test system: HOP-62 NSCLC
[16] = test system: HOP-92 NSCLC
[17] = test system: HS 578T breast
[18] = test system: HT29 colon
[19] = test system: IGROV1 ovarian
[20] = test system: K-562 leukemia
[21] = test system: KM12 colon
[22] = test system: LOX IMVI melanoma
[23] = test system: M14 melanoma
[24] = test system: MALME-3M melanoma
[25] = test system: MCF7 breast
[26] = test system: MDA-MB-231 breast
[27] = test system: MDA-MB-435
[28] = test system: MDA-MB-468 breast
[29] = test system: MOLT-4 leukemia

CN(C)c1nc(NCCNS(=O)(=O)c2ccc(C3=Nc4c(N)nc(N)nc4NC(c4ccc(C(F)(F)F)cc4)C3)cc2)nc(N2CCOCC2)n1 (configuration not stated)
> 100 µM: TGI [1] | TGI [3] | TGI [4] | TGI [6] | TGI [7] | TGI [9] | TGI [10] | TGI [12] | TGI [13] | TGI [15] | TGI [17] | TGI [19] | TGI [20] | TGI [21] | TGI [27]
63.8 µM: TGI [23]
33.2 µM: TGI [22]
31.8 µM: TGI [5]
35.5 µM: TGI [8]
30.9 µM: TGI [28]
83.9 µM: TGI [14]
48.3 µM: TGI [16]
inactive: GI50 [1] 20.8 µM | GI50 [2] 24.1 µM | GI50 [3] 51.3 µM | GI50 [4] 64.4 µM | GI50 [5] 13.8 µM | GI50 [6] 25.9 µM | GI50 [7] 25.9 µM | GI50 [8] 16.5 µM | GI50 [9] 72 µM | GI50 [10] 47.2 µM | GI50 [11] 20.2 µM | GI50 [12] 41.9 µM | GI50 [13] 30.9 µM | GI50 [14] 27.4 µM | GI50 [15] 50.7 µM | GI50 [16] 7.48 µM | GI50 [17] 19.2 µM | GI50 [18] 19.8 µM | GI50 [19] 27 µM | GI50 [20] 29.1 µM | GI50 [21] 37 µM | GI50 [22] 17.1 µM | GI50 [23] 22 µM | GI50 [24] 19.9 µM | GI50 [25] 18.1 µM | GI50 [26] 16.9 µM | GI50 [27] 34.2 µM | GI50 [28] 13.7 µM | GI50 [29] 17.3 µM
81.3 µM: TGI [25]
82.9 µM: TGI [2]
48.2 µM: TGI [18]
44.4 µM: TGI [26]
46.4 µM: TGI [11]
53.3 µM: TGI [24]
